This passage reports IC50 results from patent publication US20230210999A1, “TARGETED PROTEASE DEGRADATION (TED) PLATFORM” (EUBULUS BIOTHERAPEUTICS INC., priority 2020, published 2023).

A word on the IC50: it is the midpoint of a concentration-inhibition curve.

Holding throughout (assay type): cell-based, human
One assay has as its system Daudi cells. The assay can be described thus: Cell proliferation experiment, Daudi. Particulars: Homo sapiens, Daudi, Daudi cells; read-out: Inhibitory activity IC50 on Daudi. On the procedure:
(§1) Reagents: RPMI-1640 medium, McCoy's 5A medium, IMDM medium, MEM medium, L-15 medium, fetal bovine serum. Penicillin-Streptomycin double antibody, trypsin, etc., 2-mercaptoethanol, NEAA, pyruvate, etc.
(§2) The cells were cultured in conventional ways, and the cells should be passed at least 2 generations before plating. Cells at the logarithmic growth phase were collected, prepared into single cell suspensions and counted. The concentration of cells was adjusted to the desired concentration, and cells were inoculated into a 96-well cell culture plate at 100 μl per well. 100 μL of complete medium of the test compound were added to each well, set up 2 duplicate wells for each concentration, and diluted with a 5-fold gradient, and continued to culture for 72 h. All cells were subjected to IC50 test for corresponding samples. The experimental results are shown in Test Example 4.
(§3) The fluorescence intensity of each well was detected using the Alarm blue method, and IC50 was calculated.
(§4) IC50 was calculated according to the following formula:
(§5) Y=Max+(Min−Max)/[1+(X/IC50)×Slope]
(§6) wherein Min, Max and Slope represent the minimum, maximum and slope respectively.

The test system of the next assay is NCIH82 cells. The assay can be described thus: Cell proliferation experiment, NCI-H82. As to conditions: Homo sapiens, NCI-H82, NCI-H82 cells; read-out: Inhibitory activity IC50 on NCI-H82. The method, then:
as §1, §2, §3, §4, §5, §6

A further assay concerns MV4;11 cells. In words: Cell proliferation experiment (Alamar blue, 72 h), MV4;11. As to conditions: Homo sapiens, MV4-11, MV4;11 cells; read-out: Inhibitory activity IC50 on MV4;11. On the procedure: as §1, §2, §3, §4, §5, §6
(In general: The colour change of resazurin is a common sign of viable cells or microbes.)

The subject of another assay is MDA-MB-231 cells. The assay can be described thus: Cell proliferation experiment, MDA-MB-231. As to conditions: Homo sapiens, MDA-MB-231, MDA-MB-231 cells; read-out: Inhibitory activity IC50 on MDA-MB-231. The method, then:
as §1, §2, §3, §4, §5, §6

Consider `O=C1CCC(N2Cc3c(NC(=O)CNCCCCOCCCCNC(=O)[C@]4(Cc5cccc(Nc6nccs6)n5)CC[C@@H](Oc5cccc(Cl)c5F)CC4)cccc3C2=O)C(=O)N1` (stereo partly shown) [UB-181013], for which the IC50 with Daudi cells is more than 1000 nM; in the assay on NCIH82 cells, more than 1000 nM; in the assay with MV4;11 cells, 100 to 1000 nM.
For `O=C1CCC(N2Cc3c(C#CCCNCCOCCOCCNC(=O)[C@]4(Cc5cccc(Nc6nccs6)n5)CC[C@@H](Oc5cccc(Cl)c5F)CC4)cccc3C2=O)C(=O)N1` (stereo partly shown) [UB-181014], the IC50 with Daudi cells is more than 1000 nM; in the assay with NCIH82 cells it was more than 1000 nM; in the assay with MV4;11 cells, 100 to 1000 nM.
As for `O=C1CCC(N2Cc3cc(C#CCCNCCOCCOCCNC(=O)[C@]4(Cc5cccc(Nc6nccs6)n5)CC[C@@H](Oc5cccc(Cl)c5F)CC4)ccc3C2=O)C(=O)N1` (stereo partly shown) [UB-181015], the half-inhibitory concentration (IC50) in the assay on Daudi cells was more than 1000 nM; with NCIH82 cells, more than 1000 nM; in the assay on MV4;11 cells, 100 to 1000 nM.
Regarding `O=C1CCC(N2Cc3cc(NC(=O)CCOCCOCCNCCn4cc(-c5ccc(Nc6ncc7c(n6)-c6ccc(Cl)cc6C(c6c(F)cccc6F)=NC7)cc5)nn4)ccc3C2=O)C(=O)N1` (stereo not shown) [UB-181016], the figures for the IC50 in the assay with Daudi cells, in the assay with NCIH82 cells and with MV4;11 cells were more than 1000 nM, more than 1000 nM and 100 to 1000 nM, respectively.
Take `O=C1CCC(N2Cc3cc(NC(=O)CNCCCOCCCCCNC(=O)[C@]4(Cc5cccc(Nc6nccs6)n5)CC[C@@H](Oc5cccc(Cl)c5F)CC4)ccc3C2=O)C(=O)N1` (stereo partly shown) [UB-181017]: the IC50 in the assay with Daudi cells is more than 1000 nM; in the assay with NCIH82 cells, more than 1000 nM; in the assay on MV4;11 cells it was 100 to 1000 nM.
For the compound `O=C1CCC(N2Cc3cc(NC(=O)CCOCCOCCNCCNC(=O)[C@]4(Cc5cccc(Nc6nccs6)n5)CC[C@@H](Oc5cccc(Cl)c5F)CC4)ccc3C2=O)C(=O)N1` (stereo partly shown) [UB-181018], the IC50 with Daudi cells, with NCIH82 cells and in the assay on MV4;11 cells was more than 1000 nM in each case.
Turning to `O=C1CCC(N2Cc3cc(NC(=O)CNCCCCOCCCCNC(=O)[C@]4(Cc5cccc(Nc6nccs6)n5)CC[C@@H](Oc5cccc(Cl)c5F)CC4)ccc3C2=O)C(=O)N1` (stereo partly shown) [UB-181019], the results for the IC50 with Daudi cells, in the assay on NCIH82 cells and in the assay with MV4;11 cells were more than 1000 nM, more than 1000 nM and 100 to 1000 nM, respectively.
In the case of `O=C1CCC(N2Cc3cc(NC(=O)CNCCCOCCOCCn4cc(-c5ccc(Nc6ncc7c(n6)-c6ccc(Cl)cc6C(c6c(F)cccc6F)=NC7)cc5)nn4)ccc3C2=O)C(=O)N1` (stereo not shown) [UB-181020], the IC50 in the assay on Daudi cells was more than 1000 nM; with NCIH82 cells, more than 1000 nM; in the assay on MV4;11 cells, 100 to 1000 nM.
`O=C1CCC(N2Cc3c(C#CCCNCCOCCOCCn4cc(-c5ccc(Nc6ncc7c(n6)-c6ccc(Cl)cc6C(c6c(F)cccc6F)=NC7)cc5)nn4)cccc3C2=O)C(=O)N1` (stereo not shown) [UB-181027]: the IC50 with Daudi cells, in the assay on NCIH82 cells and with MV4;11 cells was more than 1000 nM throughout.
`O=C1CCC(N2Cc3c(C#CCCNCCOCCOCCNC(=O)c4ccc(Nc5ncc6c(n5)-c5ccc(Cl)cc5C(c5c(F)cccc5F)=NC6)cc4)cccc3C2=O)C(=O)N1` (stereo not shown) [UB-181028]: the IC50 is more than 1000 nM in the assay on Daudi cells, more than 1000 nM in the assay with NCIH82 cells and 100 to 1000 nM in the assay on MV4;11 cells.
Regarding `O=C1CCC(N2Cc3cc(C#CCCNCCOCCOCCNC(=O)c4ccc(Nc5ncc6c(n5)-c5ccc(Cl)cc5C(c5c(F)cccc5F)=NC6)cc4)ccc3C2=O)C(=O)N1` (stereo not shown) [UB-181029], the IC50 in the assay on Daudi cells, in the assay with NCIH82 cells and in the assay on MV4;11 cells was more than 1000 nM each time.
Turning to `O=C1CCC(N2Cc3c(NC(=O)CCNCCCOCCCCNC(=O)[C@]4(Cc5cccc(Nc6nccs6)n5)CC[C@@H](Oc5cccc(Cl)c5F)CC4)cccc3C2=O)C(=O)N1` (stereo partly shown) [UB-181030], the IC50 in the assay on Daudi cells, in the assay with NCIH82 cells and in the assay on MV4;11 cells was more than 1000 nM throughout.
With `O=C1CCC(N2Cc3cc(NC(=O)CCOCCOCCOCCN[C@H]4CC[C@@H](n5cc(-c6ccc(Nc7ncc8c(n7)-c7ccc(Cl)cc7C(c7c(F)cccc7F)=NC8)cc6)nn5)CC4)ccc3C2=O)C(=O)N1` (stereo partly shown) [UB- 180980], the IC50 was 100 to 1000 nM in the assay with Daudi cells, more than 1000 nM in the assay on MDA-MB-231 cells, more than 1000 nM with NCIH82 cells and less than 10 nM with MV4;11 cells.
